Laboratory results published in ChEMBL document CHEMBL3885881, “DrugMatrix”.

Species on record: Rattus norvegicus
Assay: DrugMatrix - Regimen: Daily Repeat
Assay type: toxicity, organism-based, Sprague-Dawley
Set-up: regimen Daily Repeat, gender Male, age 6-8 weeks
Conditions: in vivo, po, route oral GAVAGE, […]; for ABSOLUTE BASOPHIL / ABSOLUTE EOSINOPHIL / ABSOLUTE LYMPHOCYTE / ABSOLUTE MONOCYTE / ABSOLUTE SEGMENTED NEUTROPHIL / BASOPHIL / EOSINOPHIL / ERYTHROCYTE COUNT / HEMATOCRIT / HEMOGLOBIN / LEUKOCYTE COUNT / LYMPHOCYTE / MEAN CORPUSCULAR HEMOGLOBIN / MEAN CORPUSCULAR HEMOGLOBIN CONCENTRATION / MEAN CORPUSCULAR VOLUME / MONOCYTE / NEUTROPHIL / NUCLEATED RED BLOOD CELLS / PLATELET COUNT: tissue Blood; for ALANINE AMINOTRANSFERASE / ALBUMIN / ALKALINE PHOSPHATASE / ASPARTATE AMINOTRANSFERASE / BLOOD UREA NITROGEN / CARBON DIOXIDE / CHLORIDE / CHOLESTEROL / CREATINE PHOSPHOKINASE / CREATININE / GLUCOSE / LACTATE DEHYDROGENASE / LIPASE / PHOSPHORUS / POTASSIUM / SODIUM / TOTAL BILIRUBIN / TOTAL PROTEIN / URIC ACID: tissue Plasma
[1] = 10 mg/kg, 72 h, dose level Low, time 3 day
[2] = 10 mg/kg, 120 h, dose level Low, time 5 day
[3] = 50 mg/kg, 72 h, dose level High, time 3 day
[4] = 50 mg/kg, 120 h, dose level High, time 5 day

Structure (SMILES): CC(C)CC(N(C)C)C1(c2ccc(Cl)cc2)CCC1 (configuration not stated) [SIBUTRAMINE]
- ABSOLUTE BASOPHIL [1]: 0 CELLS/uL
- ABSOLUTE EOSINOPHIL [1]: 0 CELLS/uL
- ABSOLUTE LYMPHOCYTE [1]: 16618.67 CELLS/uL
- ABSOLUTE MONOCYTE [1]: 131.33 CELLS/uL
- ABSOLUTE SEGMENTED NEUTROPHIL [1]: 1483.33 CELLS/uL
- BASOPHIL [1]: 0%
- EOSINOPHIL [1]: 0%
- ERYTHROCYTE COUNT [1]: 5.37 x10E6/uL
- HEMATOCRIT [1]: 34.23%
- HEMOGLOBIN [1]: 13.53 G/DL
- LEUKOCYTE COUNT [1]: 18.23 x10E3/uL
- LYMPHOCYTE [1]: 91%
- MEAN CORPUSCULAR HEMOGLOBIN [1]: 25.17 pg
- MEAN CORPUSCULAR HEMOGLOBIN CONCENTRATION [1]: 39.53 G/DL
- MEAN CORPUSCULAR VOLUME [1]: 63.67 fL
- MONOCYTE [1]: 0.67%
- NEUTROPHIL [1]: 8.33%
- NUCLEATED RED BLOOD CELLS [1]: 0.33 /100WBC
- PLATELET COUNT [1]: 1187.67 x10E3/uL
- ALANINE AMINOTRANSFERASE [1]: 61.33 u/L
- ALBUMIN [1]: 3.93 G/DL
- ALKALINE PHOSPHATASE [1]: 368 u/L
- ASPARTATE AMINOTRANSFERASE [1]: 88.33 u/L
- BLOOD UREA NITROGEN [1]: 12 mg/dL
- CARBON DIOXIDE [1]: 33 mmol/L
- CHLORIDE [1]: 100.33 MEQ/L
- CHOLESTEROL [1]: 70 mg/dL
- CREATINE PHOSPHOKINASE [1]: 531.67 u/L
- CREATININE [1]: 0.1 mg/dL
- GLUCOSE [1]: 158.33 mg/dL
- LACTATE DEHYDROGENASE [1]: 253.33 u/L
- LIPASE [1]: 10.33 u/L
- PHOSPHORUS [1]: 11.93 mg/dL
- POTASSIUM [1]: 6.44 MEQ/L
- SODIUM [1]: 140.57 MEQ/L
- TOTAL BILIRUBIN [1]: 0.13 mg/dL
- TOTAL PROTEIN [1]: 5.37 G/DL
- URIC ACID [1]: 1.27 mg/dL
- ABSOLUTE BASOPHIL [2]: 0 CELLS/uL
- ABSOLUTE EOSINOPHIL [2]: 0 CELLS/uL
- ABSOLUTE LYMPHOCYTE [2]: 12939.67 CELLS/uL
- ABSOLUTE MONOCYTE [2]: 411.33 CELLS/uL
- ABSOLUTE SEGMENTED NEUTROPHIL [2]: 1515.67 CELLS/uL
- BASOPHIL [2]: 0%
- EOSINOPHIL [2]: 0%
- ERYTHROCYTE COUNT [2]: 5.44 x10E6/uL
- HEMATOCRIT [2]: 33.73%
- HEMOGLOBIN [2]: 13.47 G/DL
- LEUKOCYTE COUNT [2]: 14.87 x10E3/uL
- LYMPHOCYTE [2]: 86.67%
- MEAN CORPUSCULAR HEMOGLOBIN [2]: 24.83 pg
- MEAN CORPUSCULAR HEMOGLOBIN CONCENTRATION [2]: 39.93 G/DL
- MEAN CORPUSCULAR VOLUME [2]: 62.2 fL
- MONOCYTE [2]: 2.67%
- NEUTROPHIL [2]: 10.67%
- NUCLEATED RED BLOOD CELLS [2]: 0 /100WBC
- PLATELET COUNT [2]: 1072.33 x10E3/uL
- ALANINE AMINOTRANSFERASE [2]: 55.67 u/L
- ALBUMIN [2]: 4.07 G/DL
- ALKALINE PHOSPHATASE [2]: 363.67 u/L
- ASPARTATE AMINOTRANSFERASE [2]: 79.33 u/L
- BLOOD UREA NITROGEN [2]: 14 mg/dL
- CARBON DIOXIDE [2]: 34.33 mmol/L
- CHLORIDE [2]: 101.33 MEQ/L
- CHOLESTEROL [2]: 72 mg/dL
- CREATINE PHOSPHOKINASE [2]: 211.33 u/L
- CREATININE [2]: 0.23 mg/dL
- GLUCOSE [2]: 148.67 mg/dL
- LACTATE DEHYDROGENASE [2]: 269 u/L
- LIPASE [2]: 11 u/L
- PHOSPHORUS [2]: 10.8 mg/dL
- POTASSIUM [2]: 6.14 MEQ/L
- SODIUM [2]: 143.2 MEQ/L
- TOTAL BILIRUBIN [2]: 0.17 mg/dL
- TOTAL PROTEIN [2]: 5.57 G/DL
- URIC ACID [2]: 1.07 mg/dL
- ABSOLUTE BASOPHIL [3]: 0 CELLS/uL
- ABSOLUTE EOSINOPHIL [3]: 0 CELLS/uL
- ABSOLUTE LYMPHOCYTE [3]: 12941.33 CELLS/uL
- ABSOLUTE MONOCYTE [3]: 144.33 CELLS/uL
- ABSOLUTE SEGMENTED NEUTROPHIL [3]: 2147.67 CELLS/uL
- BASOPHIL [3]: 0%
- EOSINOPHIL [3]: 0%
- ERYTHROCYTE COUNT [3]: 5.65 x10E6/uL
- HEMATOCRIT [3]: 35.8%
- HEMOGLOBIN [3]: 14.6 G/DL
- LEUKOCYTE COUNT [3]: 15.23 x10E3/uL
- LYMPHOCYTE [3]: 85.33%
- MEAN CORPUSCULAR HEMOGLOBIN [3]: 25.83 pg
- MEAN CORPUSCULAR HEMOGLOBIN CONCENTRATION [3]: 40.8 G/DL
- MEAN CORPUSCULAR VOLUME [3]: 63.37 fL
- MONOCYTE [3]: 1%
- NEUTROPHIL [3]: 13.67%
- NUCLEATED RED BLOOD CELLS [3]: 0 /100WBC
- PLATELET COUNT [3]: 1122.33 x10E3/uL
- ALANINE AMINOTRANSFERASE [3]: 51.33 u/L
- ALBUMIN [3]: 3.67 G/DL
- ALKALINE PHOSPHATASE [3]: 417 u/L
- ASPARTATE AMINOTRANSFERASE [3]: 96 u/L
- BLOOD UREA NITROGEN [3]: 13 mg/dL
- CARBON DIOXIDE [3]: 31.67 mmol/L
- CHLORIDE [3]: 102.33 MEQ/L
- CHOLESTEROL [3]: 68.67 mg/dL
- CREATINE PHOSPHOKINASE [3]: 259.67 u/L
- CREATININE [3]: 0.14 mg/dL
- GLUCOSE [3]: 156.33 mg/dL
- LACTATE DEHYDROGENASE [3]: 181 u/L
- LIPASE [3]: 10 u/L
- PHOSPHORUS [3]: 11.27 mg/dL
- POTASSIUM [3]: 5.99 MEQ/L
- SODIUM [3]: 144.97 MEQ/L
- TOTAL BILIRUBIN [3]: 0.17 mg/dL
- TOTAL PROTEIN [3]: 5.37 G/DL
- URIC ACID [3]: 1.3 mg/dL
- ABSOLUTE BASOPHIL [4]: 0 CELLS/uL
- ABSOLUTE EOSINOPHIL [4]: 0 CELLS/uL
- ABSOLUTE LYMPHOCYTE [4]: 16000.33 CELLS/uL
- ABSOLUTE MONOCYTE [4]: 0 CELLS/uL
- ABSOLUTE SEGMENTED NEUTROPHIL [4]: 833 CELLS/uL
- BASOPHIL [4]: 0%
- EOSINOPHIL [4]: 0%
- ERYTHROCYTE COUNT [4]: 5.75 x10E6/uL
- HEMATOCRIT [4]: 36.37%
- HEMOGLOBIN [4]: 14.3 G/DL
- LEUKOCYTE COUNT [4]: 16.83 x10E3/uL
- LYMPHOCYTE [4]: 95%
- MEAN CORPUSCULAR HEMOGLOBIN [4]: 24.9 pg
- MEAN CORPUSCULAR HEMOGLOBIN CONCENTRATION [4]: 39.33 G/DL
- MEAN CORPUSCULAR VOLUME [4]: 63.37 fL
- MONOCYTE [4]: 0%
- NEUTROPHIL [4]: 5%
- NUCLEATED RED BLOOD CELLS [4]: 0 /100WBC
- PLATELET COUNT [4]: 1265 x10E3/uL
- ALANINE AMINOTRANSFERASE [4]: 57.33 u/L
- ALBUMIN [4]: 4.07 G/DL
- ALKALINE PHOSPHATASE [4]: 391.67 u/L
- ASPARTATE AMINOTRANSFERASE [4]: 95.67 u/L
- BLOOD UREA NITROGEN [4]: 14.67 mg/dL
- CARBON DIOXIDE [4]: 30 mmol/L
- CHLORIDE [4]: 102 MEQ/L
- CHOLESTEROL [4]: 56 mg/dL
- CREATINE PHOSPHOKINASE [4]: 585 u/L
- CREATININE [4]: 0.11 mg/dL
- GLUCOSE [4]: 164 mg/dL
- LACTATE DEHYDROGENASE [4]: 175.33 u/L
- LIPASE [4]: 9.67 u/L
- PHOSPHORUS [4]: 12.43 mg/dL
- POTASSIUM [4]: 6.27 MEQ/L
- SODIUM [4]: 142.13 MEQ/L
- TOTAL BILIRUBIN [4]: 0.1 mg/dL
- TOTAL PROTEIN [4]: 5.6 G/DL
- URIC ACID [4]: 1.73 mg/dL
